Values of other authors, collected in US20210198372A1, “METHODS FOR DOSING AND FOR MODULATION OF GENETICALLY ENGINEERED CELLS” (Juno Therapeutics, Inc., priority 2017, published 2021).

Settings: equivalence in terms of potency for various glucocorticoids; route (IV or PO; IV; none)

Compound | Equivalency Potency
C[C@]12C=CC(=O)C=C1CC[C@@H]1[C@@H]2[C@@H](O)C[C@@]2(C)[C@H]1CC[C@]2(O)C(=O)CO [Prednisolone] | 5
C[C@]12CCC(=O)C=C1CC[C@@H]1[C@@H]2[C@@H](O)C[C@@]2(C)[C@H]1CC[C@]2(O)C(=O)CO [Hydrocortisone] | 20
C[C@H]1C[C@@H]2[C@H]([C@@H](O)C[C@@]3(C)[C@H]2CC[C@]3(O)C(=O)COC(=O)CCC(=O)O)[C@@]2(C)C=CC(=O)C=C12 [Methylprednisolone sodium succinate] | 4
